Results taken from patent publication US8192962B2, “Processes for detecting toxic substances” (Daikin Industries, Ltd., priority 2001, dated 2012).

Tested on: Unknown protein yeast genes
Assay: DNA chip mRNA expression in yeast, unknown protein yeast genes (Table 1)
Type: cell-based, Saccharomyces cerevisiae S288C
Outline: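 Untreated cultures served as reference for log-phase S288C yeast given a growth-inhibiting, non-lethal toxicant dose for 2 h at 25° C. in YPD. Gene expression was measured on a whole-genome DNA chip from Cy3/Cy5-labeled cDNA.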

**Q.** `Oc1cc(Cl)c(Cl)cc1Cl` [(6), 2,4,5-trichlorophenol] was tested. Which “The level of expressed mRNA in the presence of chemical substance/The level of expressed mRNA in the absence of chemical substance” value (yeast gene YAL053W, incubated two hours with chemical substance) did it give?
**A.** 1.1

**Q.** And the “The level of expressed mRNA in the presence of chemical substance/The level of expressed mRNA in the absence of chemical substance” value (yeast gene YBL048W)?
**A.** 2.0

**Q.** What about the “The level of expressed mRNA in the presence of chemical substance/The level of expressed mRNA in the absence of chemical substance” value (yeast gene YBL107C) of the same compound?
**A.** 1.1

**Q.** What about the “The level of expressed mRNA in the presence of chemical substance/The level of expressed mRNA in the absence of chemical substance” value (yeast gene YDL072C, incubated two hours with chemical substance) of the same compound?
**A.** 1.5

**Q.** What about the “The level of expressed mRNA in the presence of chemical substance/The level of expressed mRNA in the absence of chemical substance” value (yeast gene YDL146W) of the same compound?
**A.** 0.7

**Q.** And the “The level of expressed mRNA in the presence of chemical substance/The level of expressed mRNA in the absence of chemical substance” value (yeast gene YDL204W, incubated two hours with chemical substance)?
**A.** 5.6

**Q.** And the “The level of expressed mRNA in the presence of chemical substance/The level of expressed mRNA in the absence of chemical substance” value (yeast gene YDL222C, incubated two hours with chemical substance)?
**A.** 1.4

**Q.** And the “The level of expressed mRNA in the presence of chemical substance/The level of expressed mRNA in the absence of chemical substance” value (yeast gene YDR057W)?
**A.** 0.7

**Q.** What about the “The level of expressed mRNA in the presence of chemical substance/The level of expressed mRNA in the absence of chemical substance” value (yeast gene YDR330W, incubated two hours with chemical substance) of the same compound?
**A.** 2.3

**Q.** What about the “The level of expressed mRNA in the presence of chemical substance/The level of expressed mRNA in the absence of chemical substance” value (yeast gene YDR411C, incubated two hours with chemical substance) of the same compound?
**A.** 0.8

**Q.** What about the “The level of expressed mRNA in the presence of chemical substance/The level of expressed mRNA in the absence of chemical substance” value (yeast gene YDR476C) of the same compound?
**A.** 3.1

**Q.** And the “The level of expressed mRNA in the presence of chemical substance/The level of expressed mRNA in the absence of chemical substance” value (yeast gene YDR511W, incubated two hours with chemical substance)?
**A.** 2.0

**Q.** What about the “The level of expressed mRNA in the presence of chemical substance/The level of expressed mRNA in the absence of chemical substance” value (yeast gene YDR545W, incubated two hours with chemical substance) of the same compound?
**A.** 1.0

**Q.** And the “The level of expressed mRNA in the presence of chemical substance/The level of expressed mRNA in the absence of chemical substance” value (yeast gene YEL001C, incubated two hours with chemical substance)?
**A.** 1.3

**Q.** And the “The level of expressed mRNA in the presence of chemical substance/The level of expressed mRNA in the absence of chemical substance” value (yeast gene YER004W, incubated two hours with chemical substance)?
**A.** 1.2

**Q.** What about the “The level of expressed mRNA in the presence of chemical substance/The level of expressed mRNA in the absence of chemical substance” value (yeast gene YER035W, incubated two hours with chemical substance) of the same compound?
**A.** 0.9

**Q.** And the “The level of expressed mRNA in the presence of chemical substance/The level of expressed mRNA in the absence of chemical substance” value (yeast gene YER079W, incubated two hours with chemical substance)?
**A.** 1.5

**Q.** And the “The level of expressed mRNA in the presence of chemical substance/The level of expressed mRNA in the absence of chemical substance” value (yeast gene YER106W, incubated two hours with chemical substance)?
**A.** 1.1

**Q.** What about the “The level of expressed mRNA in the presence of chemical substance/The level of expressed mRNA in the absence of chemical substance” value (yeast gene YER158C, incubated two hours with chemical substance) of the same compound?
**A.** 0.7

**Q.** What about the “The level of expressed mRNA in the presence of chemical substance/The level of expressed mRNA in the absence of chemical substance” value (yeast gene YER163C, incubated two hours with chemical substance) of the same compound?
**A.** 2.0

**Q.** What about the “The level of expressed mRNA in the presence of chemical substance/The level of expressed mRNA in the absence of chemical substance” value (yeast gene YER175C, incubated two hours with chemical substance) of the same compound?
**A.** 0.8

**Q.** And the “The level of expressed mRNA in the presence of chemical substance/The level of expressed mRNA in the absence of chemical substance” value (yeast gene YFL006W, incubated two hours with chemical substance)?
**A.** 1.2

**Q.** And the “The level of expressed mRNA in the presence of chemical substance/The level of expressed mRNA in the absence of chemical substance” value (yeast gene YFL010C, incubated two hours with chemical substance)?
**A.** 1.9

**Q.** What about the “The level of expressed mRNA in the presence of chemical substance/The level of expressed mRNA in the absence of chemical substance” value (yeast gene YFL024C) of the same compound?
**A.** 2.0

**Q.** What about the “The level of expressed mRNA in the presence of chemical substance/The level of expressed mRNA in the absence of chemical substance” value (yeast gene YFL032W, incubated two hours with chemical substance) of the same compound?
**A.** 0.6

**Q.** What about the “The level of expressed mRNA in the presence of chemical substance/The level of expressed mRNA in the absence of chemical substance” value (yeast gene YFL046W) of the same compound?
**A.** 0.7

**Q.** What about the “The level of expressed mRNA in the presence of chemical substance/The level of expressed mRNA in the absence of chemical substance” value (yeast gene YGL037C, incubated two hours with chemical substance) of the same compound?
**A.** 1.3

**Q.** What about the “The level of expressed mRNA in the presence of chemical substance/The level of expressed mRNA in the absence of chemical substance” value (yeast gene YGL047W, incubated two hours with chemical substance) of the same compound?
**A.** 1.5

**Q.** What about the “The level of expressed mRNA in the presence of chemical substance/The level of expressed mRNA in the absence of chemical substance” value (yeast gene YGL053W, incubated two hours with chemical substance) of the same compound?
**A.** 2.7

**Q.** What about the “The level of expressed mRNA in the presence of chemical substance/The level of expressed mRNA in the absence of chemical substance” value (yeast gene YGL059W) of the same compound?
**A.** 0.7

**Q.** What about the “The level of expressed mRNA in the presence of chemical substance/The level of expressed mRNA in the absence of chemical substance” value (yeast gene YGL121C) of the same compound?
**A.** 9.8

**Q.** What about the “The level of expressed mRNA in the presence of chemical substance/The level of expressed mRNA in the absence of chemical substance” value (yeast gene YGL199C, incubated two hours with chemical substance) of the same compound?
**A.** 0.7

**Q.** What about the “The level of expressed mRNA in the presence of chemical substance/The level of expressed mRNA in the absence of chemical substance” value (yeast gene YGR024C) of the same compound?
**A.** 0.7

**Q.** And the “The level of expressed mRNA in the presence of chemical substance/The level of expressed mRNA in the absence of chemical substance” value (yeast gene YGR101W, incubated two hours with chemical substance)?
**A.** 0.9

**Q.** What about the “The level of expressed mRNA in the presence of chemical substance/The level of expressed mRNA in the absence of chemical substance” value (yeast gene YGR110W) of the same compound?
**A.** 0.9

**Q.** What about the “The level of expressed mRNA in the presence of chemical substance/The level of expressed mRNA in the absence of chemical substance” value (yeast gene YGR130C, incubated two hours with chemical substance) of the same compound?
**A.** 0.9

**Q.** And the “The level of expressed mRNA in the presence of chemical substance/The level of expressed mRNA in the absence of chemical substance” value (yeast gene YGR154C, incubated two hours with chemical substance)?
**A.** 1.4

**Q.** What about the “The level of expressed mRNA in the presence of chemical substance/The level of expressed mRNA in the absence of chemical substance” value (yeast gene YGR221C, incubated two hours with chemical substance) of the same compound?
**A.** 3.0

**Q.** What about the “The level of expressed mRNA in the presence of chemical substance/The level of expressed mRNA in the absence of chemical substance” value (yeast gene YHL042W) of the same compound?
**A.** 0.7

**Q.** And the “The level of expressed mRNA in the presence of chemical substance/The level of expressed mRNA in the absence of chemical substance” value (yeast gene YHR029C)?
**A.** 2.7

**Q.** What about the “The level of expressed mRNA in the presence of chemical substance/The level of expressed mRNA in the absence of chemical substance” value (yeast gene YHR138C, incubated two hours with chemical substance) of the same compound?
**A.** 3.8

**Q.** And the “The level of expressed mRNA in the presence of chemical substance/The level of expressed mRNA in the absence of chemical substance” value (yeast gene YHR199C, incubated two hours with chemical substance)?
**A.** 1.1

**Q.** And the “The level of expressed mRNA in the presence of chemical substance/The level of expressed mRNA in the absence of chemical substance” value (yeast gene YIL023C, incubated two hours with chemical substance)?
**A.** 0.9

**Q.** What about the “The level of expressed mRNA in the presence of chemical substance/The level of expressed mRNA in the absence of chemical substance” value (yeast gene YIL041W, incubated two hours with chemical substance) of the same compound?
**A.** 1.0

**Q.** And the “The level of expressed mRNA in the presence of chemical substance/The level of expressed mRNA in the absence of chemical substance” value (yeast gene YIL087C, incubated two hours with chemical substance)?
**A.** 4.1

**Q.** What about the “The level of expressed mRNA in the presence of chemical substance/The level of expressed mRNA in the absence of chemical substance” value (yeast gene YJL057C, incubated two hours with chemical substance) of the same compound?
**A.** 1.4

**Q.** What about the “The level of expressed mRNA in the presence of chemical substance/The level of expressed mRNA in the absence of chemical substance” value (yeast gene YJL066C, incubated two hours with chemical substance) of the same compound?
**A.** 1.4

**Q.** What about the “The level of expressed mRNA in the presence of chemical substance/The level of expressed mRNA in the absence of chemical substance” value (yeast gene YJL082W, incubated two hours with chemical substance) of the same compound?
**A.** 0.2

**Q.** What about the “The level of expressed mRNA in the presence of chemical substance/The level of expressed mRNA in the absence of chemical substance” value (yeast gene YJL144W) of the same compound?
**A.** 1.7

**Q.** What about the “The level of expressed mRNA in the presence of chemical substance/The level of expressed mRNA in the absence of chemical substance” value (yeast gene YJL151C, incubated two hours with chemical substance) of the same compound?
**A.** 2.2

**Q.** And the “The level of expressed mRNA in the presence of chemical substance/The level of expressed mRNA in the absence of chemical substance” value (yeast gene YJL152W, incubated two hours with chemical substance)?
**A.** 1.5

**Q.** What about the “The level of expressed mRNA in the presence of chemical substance/The level of expressed mRNA in the absence of chemical substance” value (yeast gene YJL161W, incubated two hours with chemical substance) of the same compound?
**A.** 8.0

**Q.** And the “The level of expressed mRNA in the presence of chemical substance/The level of expressed mRNA in the absence of chemical substance” value (yeast gene YJL163C)?
**A.** 2.8

**Q.** What about the “The level of expressed mRNA in the presence of chemical substance/The level of expressed mRNA in the absence of chemical substance” value (yeast gene YJL171C, incubated two hours with chemical substance) of the same compound?
**A.** 2.7

**Q.** And the “The level of expressed mRNA in the presence of chemical substance/The level of expressed mRNA in the absence of chemical substance” value (yeast gene YJR008W, incubated two hours with chemical substance)?
**A.** 2.2

**Q.** And the “The level of expressed mRNA in the presence of chemical substance/The level of expressed mRNA in the absence of chemical substance” value (yeast gene YJR054W, incubated two hours with chemical substance)?
**A.** 0.7

**Q.** What about the “The level of expressed mRNA in the presence of chemical substance/The level of expressed mRNA in the absence of chemical substance” value (yeast gene YKL071W) of the same compound?
**A.** 18.6
